From US11623919B2, “Heterocyclic P2X7 antagonists” (AXXAM S.P.A., priority 2017, dated 2023)

How the values were obtained:
Type in all cases: cell-based
[1] = molecular target: T1, P2X7 receptor (Mus musculus, UniProt Q9Z1M0); test: Screen Quest Fluo-8 No Wash Calcium Assay (Bz-ATP evoked Ca2+ influx, FLIPR); conditions: mP2X7; HEK-293 cells stably transfected with P2X7 receptor, Bz-ATP at EC80, Fluo-8 NW; potency ranges A-D
T1 construct: mP2X7 (IC50; nM); other: mP2X7; HEK-293 cells stably transfected with P2X7 receptor, Bz-ATP at EC80, Fluo-8 NW; potency
T1 sequence (Q9Z1M0 1-595): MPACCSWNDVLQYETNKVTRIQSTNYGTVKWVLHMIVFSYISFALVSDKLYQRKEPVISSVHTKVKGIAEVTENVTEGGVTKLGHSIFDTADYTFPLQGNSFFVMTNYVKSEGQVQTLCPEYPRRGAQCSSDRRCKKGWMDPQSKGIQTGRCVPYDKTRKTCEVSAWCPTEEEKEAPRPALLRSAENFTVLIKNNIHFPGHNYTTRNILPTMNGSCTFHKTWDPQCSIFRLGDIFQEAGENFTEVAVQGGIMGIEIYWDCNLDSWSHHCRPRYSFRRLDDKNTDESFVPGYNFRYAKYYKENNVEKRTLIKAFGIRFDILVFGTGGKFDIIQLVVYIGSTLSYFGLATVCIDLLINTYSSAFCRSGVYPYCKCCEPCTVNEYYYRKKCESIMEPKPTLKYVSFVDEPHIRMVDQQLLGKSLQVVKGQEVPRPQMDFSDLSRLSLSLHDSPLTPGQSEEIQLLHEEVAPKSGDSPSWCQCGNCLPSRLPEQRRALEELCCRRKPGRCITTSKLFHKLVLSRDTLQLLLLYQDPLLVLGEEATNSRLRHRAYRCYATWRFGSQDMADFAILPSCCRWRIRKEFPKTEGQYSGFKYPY
Outline: (§1)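 Compounds were added to Fluo-8-loaded P2X7-transfected HEK-293 cells 5 min before an EC80 Bz-ATP challenge, and Ca2+ influx was then recorded for 3 min. Buffer held 0.3 mM Ca2+ and no Mg2+. Inhibition was normalised to A438079, giving IC50 values.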

[2] = molecular target: T2, P2X7 receptor (Homo sapiens, UniProt Q99572); test: Automated patch-clamp (QPatch16X) P2X7 channel assay; parameters: expressed in transfected cells; host or cells: HEK-293; conditions: HEK-293 cells expressing P2X7 channels; whole-cell, held at -80 mV; 100 microM BzATP; compound 1, 10, 100 and 1000 nM; read-out: Q-Patch (IC50)
T2 sequence (Q99572 1-595): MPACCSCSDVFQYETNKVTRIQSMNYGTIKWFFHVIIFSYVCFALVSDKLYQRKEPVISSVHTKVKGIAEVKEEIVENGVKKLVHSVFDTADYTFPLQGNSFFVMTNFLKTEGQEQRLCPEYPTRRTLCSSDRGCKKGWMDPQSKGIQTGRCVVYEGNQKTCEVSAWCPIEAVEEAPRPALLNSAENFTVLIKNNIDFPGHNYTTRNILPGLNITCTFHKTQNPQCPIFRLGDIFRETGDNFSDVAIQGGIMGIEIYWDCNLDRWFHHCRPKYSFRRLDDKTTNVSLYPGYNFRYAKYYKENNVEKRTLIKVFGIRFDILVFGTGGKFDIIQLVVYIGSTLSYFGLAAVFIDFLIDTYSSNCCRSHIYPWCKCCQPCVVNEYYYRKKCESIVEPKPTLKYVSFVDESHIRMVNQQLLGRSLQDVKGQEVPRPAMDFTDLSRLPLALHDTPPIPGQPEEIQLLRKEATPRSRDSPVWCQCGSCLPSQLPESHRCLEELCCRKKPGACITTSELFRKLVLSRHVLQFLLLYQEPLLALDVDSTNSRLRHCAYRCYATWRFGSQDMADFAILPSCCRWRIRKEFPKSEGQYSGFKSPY
Outline: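 Whole-cell patch clamp was run at room temperature on HEK-293 cells expressing P2X7, held at −80 mV with CsF internal and pH 7.4 NaCl external solutions. Currents were evoked by 100 µM BzATP alone and then with compound at 1, 10, 100 and 1000 nM. Peak inward currents were normalized and fitted to a Hill equation to give IC50.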

[3] = molecular target: T2, P2X7 receptor; test: Screen Quest Fluo-8 No Wash Calcium Assay (Bz-ATP evoked Ca2+ influx, FLIPR); parameters: hP2X7 (IC50; nM); other: hP2X7; HEK-293 cells stably transfected with P2X7 receptor, Bz-ATP at EC80, Fluo-8 NW; potency; conditions: hP2X7; HEK-293 cells stably transfected with P2X7 receptor, Bz-ATP at EC80, Fluo-8 NW; potency ranges A-D
Outline: as §1

SMILES: O=c1onc(Cc2c(F)cccc2Cl)n1Cc1ccc(F)cc1 [Example 55, 3-[(2-chloro-6-fluorophenyl)methyl]-4-[(4-fluorophenyl)methyl]-4,5-dihydro-1,2,4-oxadiazol-5-one]
- IC50 [1]: 200 to 1000 nM
- IC50 [2]: 33.8 nM
- IC50 [3]: 200 to 1000 nM
